This is an account of results in patent US12599662B2, “Methods and compositions for treating cancers” (INSERM (INSTITUT NATIONAL DE LA SANTÉ ET DE LA RECHERCHE …, priority 2018, dated 2026).

The subject of test [1] is 4T1 cells. The test can be described thus: Vaccination study with irradiated hESC + adjuvants + VPA on 4T1 mice model. The format is in vivo. The conditions noted are these: for Percentage of tumor reduction (% of reduction): day 26, compared to control group receiving only PBS, irradiated hESC vaccine + named adjuvant, VPA 4 mg/ml in drinking water, 4T1 in mammary fat pad. The procedure: FIG. 1: Vaccination study with hESC combined with Valproic acid (VPA), Poly(A:U), ODN 2395 or Quil-A® adjuvant on 4T1 mice model. Vaccination study with hESC combined with Valproic acid (VPA), Poly(A:U), ODN 2395 or Quil-A® adjuvant on 4T1 mice model. Blab/c mice two boosts of vaccine containing 3 different adjuvants the day of tumor challenge. Tumor growth was assessed until 26 days to follow the tumor size using calipers permitting to measure both the longitudinal (a, mm) and transverse (b, mm) diameters. Tumor volume was calculated and plotted using calculation formula 1/6Π(a+b/2)3 mm3.
The experiment was carried out as followed: Five mice per group received two boosts of vaccine 7 and 14 days with 2×10^6 irradiated hESCs cells that were mixed with 3 different adjuvants: 500 μg of TLR3, 50 μg of TLR9 agonist or 50 μg/ml of Quil-A® Saponin vaccine adjuvant. After 14 days 5×10^4 4T1 cells were injected into the mammary fat pad of the mice and Valproic acid added in the drinking water at the dose of 4 mg/ml. Five mice receiving no treatment were used as control.
Adjuvants used in the vaccine product: Three different adjuvants were tested: • 1/ A TLR3-based adjuvant: Poly(A:U) (ref #tlrl-pau, InvivoGen) Polyadenylic-polyuridylic acid (poly(A:U)) is a synthetic double stranded RNA molecule that specifically signals through TLR3. Poly(A:U) is known to induce the activation of dendritic cells and T lymphocytes, to promote antigen-specific Th1-immune responses and to boost antibody production. […]

Test [2] concerns LLC1. The test can be described thus: MHC class I and II expression on LLC1 by flow cytometry. The format is cell-based. Particulars: for MHC class 2 expression: LLC1, dose corresponding to IC50; for increase of expression of MHC1 on the cell membrane: LLC1, dose corresponding to IC50, 48 hours, compared to untreated cells. An excerpt: FIG. 3: HDACi up-regulates MHC1 in Lung cancer cell lines. […] MHCI and MHCII expression was quantified by flow cytometry analysis measuring the Relative Fluorescence Intensity (RFI).
(§1) Non-small cell lung cancer (NSCLC) cell line (lewis lung carcinoma, LLC) expressing a particularly aggressive metastatic phenotype was used.

For test [3], the system named is LLC1. The test can be described thus: MTT cell proliferation assay on LLC1. The class given is cell-based. The conditions noted are these: Mus musculus. The method, then:
as §1
The half maximal inhibitory concentration (IC50) was first determined for each HDACi using an MTT cell proliferation assay. LLC1 was treated with an increasing dose of HDCAi and proliferation was estimated measuring the absorbance after the incorporation by the cell of MMT (3-(4,5-dimethylthiazol-2-yl)-2,5-diphenyl tetrazolium bromide) substrate.

The test system of test [4] is HDACs. Particulars: cited from earlier work.
Test [5] has as its system mammosphere-derived 4T1 cells. Description: MHC I expression on 4T1-derived mammospheres by flow cytometry. The class given is cell-based. Particulars: 2 mM VPA. The method, then: (§2) FIG. 2: Valproic acid treatment increases MHC I expression in breast tumor cells. Variation in MHC I expression during VPA treatment at 2 mM on 4T1 adherent cells and on 4T1-derived mammospheres.
(§3) 4T1 cells are a triple negative breast cancer cell line that was incubated with increased doses (0.2 and 2 mM) of valproic acid (VPA). After 4 days of treatment, the MHC I surface marker was quantified by flow cytometry analysis.
(In flow cytometry, cells or beads pass a laser one at a time.)

For test [6], the system named is 4T1 cells. Description: Transcriptome analysis of VPA-treated 4T1 cells. The class given is cell-based. The conditions noted are these: 0.5 mM VPA for 10 days versus non-VPA treated cells. The method, then:
To determine the effect of VPA on 4T1 cells, a transcriptome analysis on cells treated with 0.5 mM of VPA for 10 days was performed and compared with that of non-VPA treated cells. These analyses allowed for the identification of the set of genes implicated in TNF-α signaling and in the response of IFN-α and IFN-γ. In addition, the use of the SAM algorithm allowed for the discrimination of 44 immune-related genes between the VPA-treated samples and their control counterparts, which were validated by principal component analysis (p-value=3.3×10^−4). […] These three molecules are known to contribute to the clonal expansion, survival, and development of T cells and regulate CD28 co-stimulation to promote Th1 cell responses. Consequently, this HDACi improves the immune response against the cancer cells.

Test [7] has as its system 4T1 cells. Description: Surface marker expression on 4T1 cells by flow cytometry. The format is cell-based. The procedure:
as §2, §3

“Polyadenylic-polyuridylic acid [Poly(A:U)]”: the “Percentage of tumor reduction (% of reduction)” value in test [1] stood at 54%. The “reduction of breast tumor volume” value in test [1] (hESC vaccine + adjuvant, versus TLR9 agonist or Quil-A, p<0.001) is recorded as “highest reduction of breast tumor volume”.
Turning to `Nc1ccccc1NC(=O)c1ccc(CNC(=O)OCc2cccnc2)cc1` [Entinostat], in test [2], the “MHC class 2 expression” value is “not modulated” and the “increase of expression of MHC1 on the cell membrane” value (“increase of expression of MHC1” for short) amounted to 2 fold. The compound also registered an IC50 in test [3] of 2 to 4 µM.
As to `O=C(CCCCCCC(=O)Nc1ccccc1)NO` [Vorinostat, N-Hydroxy-N′-phenyloctanediamide], in test [2], the “MHC class 2 expression” value is “not modulated” and the “increase of expression of MHC1” value came out at 2 fold.
As to `CC[C@@H](C(N)=O)N1CCCC1=O` [Levetiracetam], in test [2], the “MHC class 2 expression” value was “not modulated” and the “increase of expression of MHC1” value is on record as 2 fold. Moreover, the “direct effect on HDACs” value in test [4] is “no direct effect on HDACs”. In addition, the IC50 in test [3] lay in the range of 2 to 4 µM.
As to `CCCC(CCC)C(=O)O` [VPA, acid-2-propylpentanoic], in test [5], the “increase of MHC I expression (Relative Fluorescence Intensity)” value is recorded as 2.7 fold. The “MHC1 overexpression versus non-treated LLC1 cells” value in test [2] (LLC1, FIG. 3A) amounted to 10 folds. In addition, in test [2], the “MHC class 2 expression” value is “not modulated” and the “increase of expression of MHC1” value amounted to 2 fold. The “fold change of CD74, CCL2 and TNFRSF9 expression” value in test [6] was “greater than 2”. In addition, the “MHC I levels” value in test [7] (0.2 and 2 mM, 4 days of treatment) is listed as “increasing MHC I levels in a dose-dependent manner”. In test [7] (4T1 cells, 2 mM VPA), the “increase in PDL1 expression” value was found to be 2.1 fold and the “increase of MHC I expression (Relative Fluorescence Intensity)” value amounted to 2.1 fold. Also, the PDL2 expression result in test [7] (4T1 cells, after VPA treatment) was “only weakly upregulated”. For the same compound, the IC50 in test [3] was about 2000 µM. Besides, in test [1], the “Percentage of tumor reduction (% of reduction)” value is on record as 24%.
Regarding 2-pyrrolidinone-n-butyric acid [PBA], the Ki in test [4] (major carboxylic acid metabolite of levetiracetam in humans, read-out: Ki for HDAC inhibition) was 2.25 mM.

What is called IC50 is the concentration needed to halve the response being measured. High values mean weaker potency in that assay, low ones greater potency in that assay. What is called Ki is a dissociation constant, usually derived from enzyme kinetics or from competition with a known ligand.
